The source of these data is ChEMBL document CHEMBL1201862, “PubChem BioAssay data set” (2004).

Some test systems named below: SW-620; SF-295; CCRF-CEM; EKVX; RPMI-8226; SK-MEL-5; MDA-MB-231; HT-29; OVCAR-8; HCT-116; 786-0; TK-10; LOX IMVI; NCI-H226; T47D; A498; SK-MEL-2; SR; UACC-257; A549.
Common to all, as to assay: DTP human tumour cell line panel, 48 h

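Grown in 96-well plates, cells were treated for 48 hours with each compound at five concentrations. Insufficient inhibition: endpoint recorded as highest concentration tested. GI50 marks 50% less growth.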 Active and inactive are the calls of the source. No stated cut-off is given here; in the data, active = GI50 up to about 1.1 µM and inactive = higher. Where only a bound is given, the exact number is not on record here.

Regarding `CCOC(=O)C1=C(C)N(C)C23OC4(C(=O)OC)CC2c2ccccc2C1N3C4=O` (stereo not given), the GI50 (in general, the concentration giving 50% growth inhibition) is 41.9 µM (inactive) with SW-620; 39.3 µM (inactive) in the assay with SF-295; 79.6 µM (inactive) in the assay with CCRF-CEM; > 100 µM (inactive) in the assay on EKVX; 44.8 µM (inactive) with RPMI-8226; 32.5 µM (inactive) in the assay with SK-MEL-5. Further, the GI50 was > 100 µM (inactive) with MDA-MB-231; 51.9 µM (inactive) in the assay with HT-29; > 100 µM (inactive) with OVCAR-8; 49.8 µM (inactive) with HCT-116; > 100 µM (inactive) in the assay on 786-0; > 100 µM (inactive) in the assay with TK-10. In addition, the GI50 in the assay with LOX IMVI is > 100 µM (inactive); in the assay with NCI-H226, > 100 µM (inactive); in the assay with T47D it was > 100 µM (inactive); in the assay with A498, > 100 µM (inactive); in the assay with SK-MEL-2 it was > 100 µM (inactive); with SR, 16.5 µM (inactive). Further, the GI50 with UACC-257 and with A549 was > 100 µM (inactive) throughout.
Consider `COc1ccc2c(c1)-c1nc(=O)n(CCCN(C)C)c3ccc([N+](=O)[O-])c(c13)N2`, for which the GI50 in the assay on SW-620 was 0.282 µM (active); with SF-295, 0.791 µM (active); in the assay with CCRF-CEM, 0.117 µM (active); in the assay on EKVX it was 0.711 µM (active); in the assay with RPMI-8226, 0.231 µM (active); in the assay on SK-MEL-5, 0.875 µM (active). Besides, the GI50 in the assay with MDA-MB-231 is 0.561 µM (active); in the assay with HT-29, 0.473 µM (active); with OVCAR-8, 0.724 µM (active); in the assay with HCT-116, 0.293 µM (active); with 786-0, 0.466 µM (active); with TK-10, 1.09 µM (active). In addition, the GI50 with LOX IMVI is 0.838 µM (active); in the assay with NCI-H226, 3.81 µM (inactive); with T47D, 15.5 µM (inactive); in the assay with A498 it was 3.39 µM (inactive); with SK-MEL-2 it was 12.2 µM (inactive); in the assay with SR, 0.406 µM (active). Moreover, the figures for the GI50 in the assay on UACC-257 and in the assay on A549 were 1.04 µM (active) and 0.469 µM (active), respectively.
Take `CC(=O)O[C@H]1/C(=C/c2ccncc2)C[C@H]2[C@@H]3CC=C4C[C@@H](N5CCCC5)CC[C@]4(C)[C@H]3CC[C@]12C`: the GI50 in the assay with SW-620 is 12.2 µM (inactive); in the assay with SF-295, 14.5 µM (inactive); with CCRF-CEM it was 15.2 µM (inactive); with EKVX it was 13.9 µM (inactive); in the assay on RPMI-8226, 6.1 µM (inactive); with SK-MEL-5 it was 8.53 µM (inactive). For the same compound, the GI50 is 19.1 µM (inactive) in the assay on MDA-MB-231; 1.49 µM (inactive) with HT-29; 14 µM (inactive) in the assay with OVCAR-8; 3.41 µM (inactive) with HCT-116; 3.15 µM (inactive) with 786-0; 14.6 µM (inactive) in the assay with TK-10. For the same compound, the GI50 in the assay with LOX IMVI is 2.32 µM (inactive); with NCI-H226, 19.3 µM (inactive); in the assay on T47D, 13.4 µM (inactive); with A498 it was 16.7 µM (inactive); in the assay on SK-MEL-2, 15.5 µM (inactive); in the assay on SR, 5.2 µM (inactive). Also, the values for the GI50 in the assay on UACC-257 and in the assay with A549 were 2.34 µM (inactive) and 11.8 µM (inactive), respectively.
For the compound `CCOC(=O)c1c(Sc2ccc([N+](=O)[O-])cc2[N+](=O)[O-])nc2c3ccccc3ccn12`, the GI50 in the assay on SW-620 was > 100 µM (inactive); with SF-295, 28.7 µM (inactive); in the assay with CCRF-CEM, 40.7 µM (inactive); in the assay with EKVX it was > 100 µM (inactive); with RPMI-8226 it was 36.3 µM (inactive); in the assay with SK-MEL-5, 80.2 µM (inactive). Further, the GI50 in the assay with MDA-MB-231 is 29.1 µM (inactive); with HT-29 it was > 100 µM (inactive); in the assay with OVCAR-8 it was 33.8 µM (inactive); with HCT-116 it was > 91 µM (inactive); in the assay with 786-0, 5.6 µM (inactive); in the assay with TK-10, > 55.7 µM (inactive). Besides, the GI50 with LOX IMVI is > 100 µM (inactive); with NCI-H226, 83.6 µM (inactive); in the assay on T47D, > 100 µM (inactive); in the assay on A498, 62.8 µM (inactive); in the assay on SK-MEL-2 it was > 100 µM (inactive); in the assay with SR it was > 100 µM (inactive). Also, the GI50 with UACC-257 and in the assay with A549 was > 100 µM (inactive) each time.
